Results published in patent US6925388B1, “Heterocyclic nonnucleoside inhibitors of reverse transcriptase” (Parker Hughes Institute, priority 1998, dated 2005).
Like-named read-outs stand apart in the source and are kept apart here.

How the values were obtained:
HIV-1 strain HTLVIIIB = test: p24 enzyme immunoassay of HIV replication in HTLVIIIB-infected peripheral blood mononuclear cells; assay type: cell-based
Protocol: The HIV-1 strain HTLVIIIB (kindly provided by Dr. Neal T. Wetherall, VIROMED Laboratories, Inc.), was propagated in CCRF-CEM cells, and used in in vitro assays of the anti-HIV-1 activity of the synthesized novel derivatives. Cell-free supernatants of HTLVIIIB-infected CCRF-CEM cells were harvested, dispensed into 1 ml aliquots, and frozen at −70° C.
The incubated cells were then exposed to HIV-1 at a multiplicity of infection (MOI) of 0.1 during a one-hour adsorption period at 37° C. in a humidified 5% CO2 atmosphere. […] Aliquots of culture supernatants were removed from the wells on the 7th day after infection for p24 antigen assays. […] Ag.
The applied p24 enzyme immunoassay (EIA) was the unmodified kinetic assay commercially available from Coulter Corporation/Immunotech, Inc. (Westbrooke, Me.). In the assay, a murine monoclonal antibody against HIV core protein is coated onto microwell strips. Antigen (HIV core protein) present in the test culture supernatant samples binds the antibody and the bound antibody-antigen complex is quantitated. Percent viral inhibition was calculated by comparing the p24 values from the test substance-treated infected cells with p24 values from untreated infected cells (i.e., virus controls).

[1] = target: recombinant HIV-1 reverse transcriptase (rRT) (Human immunodeficiency virus type 1 group M subtype B, UniProt P04585); test: Quan-T-RT cell-free assay of recombinant HIV-1 reverse transcriptase activity; assay type: biochemical
Protocol: In addition, the activity of the test compounds to inhibit recombinant HIV-1 reverse transcriptase (rRT) activity was determined using the Quan-T-RT assay system (Amersham, Arlington Heights, Ill.), which utilizes the scintillation proximity assay principle. […] Data for both bioassays is reported as IC50 values.

non-infected PBMNC = test: Microculture Tetrazolium Assay (MTA) of cell viability; assay type: cell-based, human; settings: for IC50: Table 7, concentration decreasing cellular proliferation by 50%
Protocol: (§1) Ag. […] In brief, non-infected PBMNC were treated with test compounds or controls for 7 days under identical experimental conditions and 2,3-bis(2-methoxy-4-nitro-5-sulfophenyl)-5-[(phenylamino)-carbonyl]-2H-tetrazolium hydroxide ([…]), was added to quantitative cellular proliferation.

[2] = as above; assay type: cell-based, human; settings: human; for CC50 at 7 days: non-infected PBMNC, Table 4
Protocol: as §1

[3] = Table 7, HIV-infected peripheral blood mononuclear cells, read-out: IC50 [p24]
[4] = Table 4, DABO compounds, purified recombinant HIV RT, read-out: IC50 [rRT]
[5] = Table 6, recombinant HIV reverse transcriptase assay, read-out: IC50 rRT
[6] = Human immunodeficiency virus 1, PBMC, read-out: IC50 [p24]
[7] = Table 5, HIV-infected PBMNC, read-out: IC50 p24
[8] = Human immunodeficiency virus 1, PBMC, Table 6, read-out: IC50 p24
[9] = Human immunodeficiency virus 1, PBMC, HIV-infected human peripheral blood mononuclear cells, read-out: IC50 for inhibition of HIV replication (p24 production)

Q: With Cc1cn([C@H]2C[C@H](N=[N+]=[N-])[C@@H](CO)O2)c(=O)[nH]c1=O [AZT, reference compound] as the compound, how does the IC50 (HIV-1 strain HTLVIIIB; 3 of 3 independent experiments for I-4, read-out: IC50 anti-HIV activity (p24)) read?
A: The IC50 was 8 nM.

Q: And the IC50 (HIV-1 strain HTLVIIIB; Table 4, HTLVIIIB-infected peripheral blood mononuclear cells, read-out: IC50 [p24])?
A: Its IC50 is 40 nM.

Q: What about the IC50 (HIV-1 strain HTLVIIIB; Table 6, read-out: IC50 p24) of the same compound?
A: The IC50 was 4 nM.

Q: And the IC50 (HIV-1 strain HTLVIIIB; [3])?
A: Its IC50 is 4 nM.

Q: And the IC50 [1, 4]?
A: The IC50 was over 100000 nM.

Q: What about the IC50 [1, 5] of the same compound?
A: The IC50 was over 100000 nM.

Q: And the CC50 (non-infected PBMNC; Table 4)?
A: The CC50 was 50000 nM.

Q: What about the IC50 (non-infected PBMNC) of the same compound?
A: Its IC50 is 50000 nM.

Q: Which IC50 (HIV-1 strain HTLVIIIB; [6]) does the source give for CSCSc1nc(Cc2ccccc2)c(C)c(=O)[nH]1 [Compound 3a, 5-methyl-2-[(methylthiomethyl)thio]-6-benzyl-pyrimidin-4-1H-one] here?
A: Its IC50 is 4500 nM.

Q: What about the IC50 [1, 4] of the same compound?
A: Its IC50 is 18800 nM.

Q: And the CC50 at 7 days [2]?
A: The CC50 at 7 days was over 100000 nM.

Q: Which results are given for CCc1c(Cc2ccccc2)nc(SCSC)[nH]c1=O [Compound 3b, 5-ethyl-2-[(methylthiomethyl)thio]-6-benzyl-pyrimidin-4-1H-one]?
A: IC50 (HIV-1 strain HTLVIIIB; [6]): 800 nM; IC50 [1, 4]: 9700 nM; CC50 at 7 days [2]: > 100000 nM

Q: For CSCSc1nc(Cc2ccccc2)c(C(C)C)c(=O)[nH]1 [Compound 3c, 5-isopropyl-2-[(methylthiomethyl)thio]-benzyl-pyrimidin-4-1H-one], which “selectivity index (IC50[MTA]/IC50[p24])” value (HIV-1 strain HTLVIIIB) is on record?
A: Its value is > 100,000.

Q: What about the “fold more active than AZT and MKC-442” value (HIV-1 strain HTLVIIIB; HIV replication) of the same compound?
A: The value was “more than 4 fold”.

Q: What about the IC50 (HIV-1 strain HTLVIIIB; [6]) of the same compound?
A: The IC50 was under 1 nM.

Q: What about the IC50 (HIV-1 strain HTLVIIIB; Human immunodeficiency virus 1, PBMC, read-out: IC50 for inhibition of HIV replication (p24 production)) of the same compound?
A: Its IC50 is under 1 nM.

Q: And the “inhibition of cellular proliferation as measured by MTA” value (non-infected PBMNC; no detectable cytotoxicity)?
A: The value was over 100 µM.

Q: And the CC50 at 7 days [2]?
A: Its CC50 at 7 days is over 100000 nM.

Q: Which IC50 [1, 4] does the source give for CSCSc1nc(Cc2cc(C)cc(C)c2)c(C(C)C)c(=O)[nH]1 [Compound 3d, 5-isopropyl-2-[(methylthiomethyl)thio]-6-(3,5-dimethylbenzyl)-pyrimidin-4-1H-one] here?
A: The IC50 was 4800 nM.

Q: With S=C(NCCc1ccccn1)Nc1ccccn1 [Compound I-1, N-[2-(2-pyridylethyl)]-N′-[2-(pyridyl)]-thiourea] as the compound, how does the IC50 (HIV-1 strain HTLVIIIB; [7]) read?
A: Its IC50 is 230 nM.

Q: With S=C(NCCN1CCCCC1)Nc1ccc(Br)cn1 [Compound I-3, N-[2-(1-piperidinoethyl)]-N′-[2-(5-bromopyridyl)]-thiourea] as the compound, how does the IC50 (HIV-1 strain HTLVIIIB; [7]) read?
A: The IC50 was under 1 nM.

Q: What does the source list for COc1ccc(OC)c(CCNC(=S)Nc2ccc(Br)cn2)c1 [Compound I-4, N-[2-(2,5-dimethoxyphenylethyl)]-N′-[2-(5-bromopyridyl)]-thiourea]?
A: IC50 (HIV-1 strain HTLVIIIB; Human immunodeficiency virus 1, PBMC, 3 of 3 independent experiments for I-4, read-out: IC50 anti-HIV activity (p24)): < 1 nM; IC50 (HIV-1 strain HTLVIIIB; Human immunodeficiency virus 1, PBMC, Table 5, HIV-infected PBMNC, read-out: IC50 p24): < 1 nM; times more potent than trovirdine against recombinant HIV RT [1]: 8; melting point: 133 to 138 °C

Q: With COc1ccccc1CCNC(=S)Nc1ccc(Br)cn1 [II-1, N-[2-(2-methoxyphenethyl)]-N′-[2-(5-bromopyridyl)]-thiourea] as the compound, how does the IC50 (HIV-1 strain HTLVIIIB; [8]) read?
A: Its IC50 is 10 nM.

Q: And the IC50 [1]?
A: The IC50 was 1000 nM.

Q: What about the melting point of the same compound?
A: Its melting point is 143 to 145 °C.

Q: Which IC50 (HIV-1 strain HTLVIIIB; [9]) does the source give for Fc1ccccc1CCNC(=S)Nc1ccc(Br)cn1 [II-2, N-[2-(2-fluorophenethyl)]-N′-[2-(5-bromopyridyl)]-thiourea] here?
A: Its IC50 is under 1 nM.

Q: What about the IC50 (HIV-1 strain HTLVIIIB; [8]) of the same compound?
A: The IC50 was under 1 nM.

Q: What about the IC50 [1] of the same compound?
A: The IC50 was 600 nM.

Q: What about the melting point of the same compound?
A: Its melting point is 156 to 157 °C.

Q: For S=C(NCCc1ccccc1Cl)Nc1ccc(Br)cn1 [II-3, N-[2-(2-chlorophenethyl)]-N′-[2-(5-bromopyridyl)]-thiourea], which IC50 (HIV-1 strain HTLVIIIB; [9]) is on record?
A: Its IC50 is under 1 nM.

Q: And the IC50 (HIV-1 strain HTLVIIIB; [8])?
A: Its IC50 is under 1 nM.

Q: And the IC50 [1]?
A: The IC50 was 700 nM.

Q: What about the melting point of the same compound?
A: The melting point was 137 to 139 °C.

Q: With COc1cccc(CCNC(=S)Nc2ccc(Br)cn2)c1 [II-4, N-[2-(3-metboxyphenethyl)]-N′-[2-(5-bromopyridyl)]-thiourea] as the compound, how does the “selectivity index (IC50[MTA]/IC50[p24])” value (HIV-1 strain HTLVIIIB) read?
A: The value was > 3×10^4.

Q: And the IC50 (HIV-1 strain HTLVIIIB; [9])?
A: The IC50 was 3 nM.

Q: And the IC50 (HIV-1 strain HTLVIIIB; [8])?
A: Its IC50 is 3 nM.

Q: What about the IC50 [1] of the same compound?
A: Its IC50 is 400 nM.

Q: And the “times more potent than trovirdine against recombinant HIV RT” value [1]?
A: The value was “approximately 2”.

Q: What about the melting point of the same compound?
A: Its melting point is 155 to 156 °C.

Q: Which IC50 (HIV-1 strain HTLVIIIB; [9]) does the source give for Fc1cccc(CCNC(=S)Nc2ccc(Br)cn2)c1 [II-5, N-[2-(3-fluorophenethyl)]-N′-[2-(5-bromopyridyl)]-thiourea] here?
A: The IC50 was under 1 nM.

Q: And the IC50 (HIV-1 strain HTLVIIIB; [8])?
A: Its IC50 is under 1 nM.

Q: And the IC50 [1]?
A: The IC50 was 700 nM.

Q: And the melting point?
A: Its melting point is 171 to 172 °C.

Q: For S=C(NCCc1cccc(Cl)c1)Nc1ccc(Br)cn1 [II-6, N-[2-(3-chlorophenethyl)]-N′-[2-(5-bromopyridyl)]-thiourea], which IC50 [1, 5] is on record?
A: Its IC50 is 3100 nM.

Q: And the melting point?
A: The melting point was 163 to 165 °C.

Q: Which results are given for COc1ccc(CCNC(=S)Nc2ccc(Br)cn2)cc1 [II-7, N-[2-(4-methoxyphenethyl)]-N′-[2-(5-bromopyridyl)]-thiourea]?
A: IC50 (HIV-1 strain HTLVIIIB; [9]): 15 nM; IC50 (HIV-1 strain HTLVIIIB; [8]): 15 nM; melting point: 178 to 179 °C

Q: For Fc1ccc(CCNC(=S)Nc2ccc(Br)cn2)cc1 [II-8, N-[2-(4-fluorophenethyl)]-N′-[2-(5-bromopyridyl)]-thiourea], which “fold less active than meta and ortho F compounds (IC50[rRT])” value [1] is on record?
A: Its value is 10 fold.

Q: What about the IC50 [1, 5] of the same compound?
A: The IC50 was 6400 nM.

Q: What about the melting point of the same compound?
A: Its melting point is 177 to 178 °C.

Q: For S=C(NCCc1ccc(Cl)cc1)Nc1ccc(Br)cn1 [II-9, N-[2-(4-chlorophenethyl)]-N′-[2-(5-bromopyridyl)]-thiourea], which melting point is on record?
A: The melting point was 180 to 183 °C.

Q: Which IC50 (HIV-1 strain HTLVIIIB; [3]) does the source give for S=C(NCCN1CCCCC1)Nc1ccc(Br)cn1 [III-1, N-[2-(1-piperidinylethyl)]-N′-[2-(5-bromopyridyl)]-thiourea] here?
A: Its IC50 is under 1 nM.

Q: What about the IC50 (non-infected PBMNC) of the same compound?
A: Its IC50 is over 100000 nM.

Q: Which IC50 (HIV-1 strain HTLVIIIB; [3]) does the source give for S=C(NCCN1CCNCC1)Nc1ccc(Br)cn1 [III-2, N-[2-(1-piperizinylethyl)]-N′-[2-(5-bromopyridyl)]-thiourea] here?
A: The IC50 was 2 nM.

Q: What about the IC50 (non-infected PBMNC) of the same compound?
A: Its IC50 is over 100000 nM.

Q: Which results are given for S=C(NCCN1CCOCC1)Nc1ccc(Br)cn1 [III-3, N-[2-(1-morpholinylethyl)]-N′-[2-(5-bromopyridyl)]-thiourea]?
A: IC50 (HIV-1 strain HTLVIIIB; [3]): < 1 nM; IC50 (non-infected PBMNC): > 100000 nM

Q: For CCOCn1c(Cc2ccccc2)c(C(C)C)c(=O)[nH]c1=O [MKC-442, reference compound], which CC50 at 7 days [2] is on record?
A: Its CC50 at 7 days is over 100000 nM.

Q: Which IC50 (HIV-1 strain HTLVIIIB; [6]) does the source give for S=C(NCCc1ccccn1)Nc1ccc(Br)cn1 [Trovirdine, reference compound] here?
A: Its IC50 is 7 nM.

Q: And the IC50 (HIV-1 strain HTLVIIIB; Human immunodeficiency virus 1, PBMC, read-out: IC50 anti-HIV activity (p24))?
A: Its IC50 is 7 nM.

Q: What about the IC50 (HIV-1 strain HTLVIIIB; Human immunodeficiency virus 1, PBMC, read-out: IC50 p24) of the same compound?
A: The IC50 was 7 nM.

Q: And the IC50 at 7 days ([2]; Table 7, concentration decreasing cellular proliferation by 50%)?
A: Its IC50 at 7 days is over 100000 nM.
